Consider four compounds from patent US11155821B2, “Compositions and methods for tagging ribonucleic acids” (The Regents of the University of Colorado, a body corporate, priority 2018, dated 2021).

For data set [1], the target named is Cbl riboswitch RNA variant A (wild type env8). Description: Isothermal titration calorimetry (ITC), aptamer A. It counts as binding. To be noted: ITC at 25° C., RNA buffer; mean of 3 independent experiments +/- STDEV. The protocol:
(§1) ITC experiments were performed using protocols previously established and described [reference 30, 31]. Briefly, the RNA was dialyzed overnight at 4° C. into RNA buffer (100 mM KCl, 10 mM NaCl, 1 mM MgCl2, 50 mM HEPES, pH 8.0) using 6-8000 Dalton molecular weight cutoff dialysis tubing (Spectra/Por). The dialysis buffer was used to dissolve Cbl and Cbl-5xPEG-ATTO590, and to dilute RNA To the desired concentration. Titrations were performed at 25° C. using a MicroCal ITC 200 microcalorimeter (GE Healthcare) and data were fit using the Origin software suite as previously described [reference 61].

Data set [2] deals with truncated Cbl riboswitch RNA variant AT. As to the kind of experiment: Isothermal titration calorimetry (ITC), aptamer AT. It counts as binding. The note with it: ITC at 25° C., RNA buffer; mean of 3 independent experiments +/- STDEV. The protocol:
as §1
In general terms: Isothermal titration calorimetry measures the heat released or taken up as one component is titrated into another.

Data set [3] addresses Cbl riboswitch RNA variant D. As to the kind of experiment: Isothermal titration calorimetry (ITC), aptamer D. It counts as binding. The note with it: ITC at 25° C., RNA buffer; mean of 3 independent experiments +/- STDEV. As to the method:
as §1

The subject of a further data set is ACTB-(2xdBroccoli) mRNA. As to the kind of experiment: Stress granule (SG) assay, live U2-OS Halo-G3BP1 cells, Broccoli tag. It counts as cell-based, Homo sapiens. To be noted: arsenite. As to the method:
U2-OS cells stably producing GFP-G3BP1 or genomically producing Halo-G3BP1 were seeded at 0.25×10^6 cells in imaging dishes. One day after seeding, cells were chemically transfected with typically 2-μg plasmid DNA (1 μg of the ACTB plasmid fused with an RNA tag of interest mixed with 1 μg of the transfection marker pNLS-TagBFP (in pcDNA)) using the TransIT transfection system following manufacturer recommendations (Mirus). On the next day, cells were stained and bead loaded with the Cbl-fluorophore probe as described above. The media that was added after bead loading contained 0.5 mM sodium arsenite and cells were incubated at 37° C./5% CO 2 for 30-45 min to induce stress granules. Cells were rinsed once in PBS and Fluorobrite media (Gibco), supplemented with 0.5 mM sodium arsenite, was added for live cell imaging. For correlative live/fixed imaging where cells were first imaged live, followed by fixation and FISH/immunofluorescence imaging of the same cells, the following modifications were made to the protocol above. Instead of home-made imaging dishes, gridded imaging dishes (MatTek) were used. Dishes were coated with 1 μg/mL fibronectin (Sigma) for 4 hours and fibronectin was rinsed once with full media before cells were seeded. Because plasmid ACTB-(AT) 4x was used, a higher concentration of Cbl-5xPEG-ATTO590 was bead loaded (3 μL of 50 μM probe).
For live imaging of SGs tagged with 2xdBroccoli in U2-OS cells, the pinhole was 67.7 μm and the laser settings were as follows. For the DAPI channel, the laser was set at 5.0 (HV=110), for the GFP channel the laser was set at 1.0 (HV=110), for the TRITC channel the laser was set at 1.0 (HV=40). For live imaging of SGs tagged with MS2 stem-loop repeats in U2-OS cells, the pinhole was 67.7 μm and the laser settings were as follows. For the DAPI channel, the laser was set at 5.0 (HV=110), for the GFP channel the laser was adjusted for optimal contrast without detector saturation (approximately 1.0-2.5) (HV approximately 60-100), for the TRITC channel the laser was set at 0.9 (HV=40).

The subject of the next data set is Broccoli. As to the kind of experiment: Photobleaching of RNA/probe complexes, constant illumination, Broccoli. It counts as physicochemical. The note with it: bound to Broccoli, within a second. The protocol: For photobleaching experiments, indicated probes and RNA (Table 10) were mixed before about 3 to 4× of microscope immersion oil (Olympus immersion oil type-F) was added and the solution was emulsified to generate droplets. Samples were prepared in RNA buffer for Cbl-fluorophore samples (100 mM KCl, 10 mM NaCl, 1 mM MgCl2, 50 mM HEPES, pH 8.0) and in Broccoli buffer (40 mM HEPES pH 7.4, 100 mM KCl, 1 mM MgCl2) for the DFHBI-1T/Broccoli sample. The droplets were sandwiched between a glass slide and a coverslip. The sample was placed on the sample stage of a Nikon Ti-E HCA widefield fluorescence microscope with the coverslip facing a 20× objective lens. Photostability was assessed in part by fixing the excitation rate, i.e. the number of absorbed excitation photons were the same for Cbl-fluorophore/RNA samples and the DFHBI-1T/Broccoli sample. The high irradiance for the DFHBI-1T Broccoli sample is a result of its low extinction coefficient. Images were acquired every 50 ms for DFHBI-1T/Broccoli and every 250 ms for others for 3 seconds, then every second for 47 seconds or longer, and the exposure time of each image was 15 ms for DFHBI-1T/Broccoli and 40 ms for others. A total of 6 to 15 droplets were analyzed for each sample.

Data set [4] deals with RNA AT,MUT (four point mutations in the Cbl-binding site). Description: In vitro fluorescence turn-on, plate reader, aptamer AT,MUT. It counts as biochemical. The note with it: probe 0.25 or 0.5 μM, RNA at least 5 μM. As to the method:
(§2) The concentration of Cbl-fluorophore probes, free fluorophores and free Cbl was determined using extinction coefficients listed in Table 1B. In vitro experiments were conducted in RNA buffer (100 mM KCl, 10 mM NaCl, 1 mM MgCl2, 50 mM HEPES, pH 8.0). For the Cbl-fluorophore probes, the extinction coefficient of the fluorophores was used to determine the concentration. […] The fluorescence intensity of each probe was measured in the presence or absence of RNA in RNA buffer as technical triplicates in a Tecan Safire-II fluorescence plate. […] Samples were incubated for at least 20 minutes (min) at room temperature in the dark to allow for Cbl-binding of the RNA prior to data collection. The excitation wavelength for each probe is listed in Table 1B and the emission spectrum was collected in 1 nm increments for the range listed in Table 1B. Each emission spectrum was buffer subtracted, integrated and normalized to the signal of the free fluorophore at the same concentration. Resulting % fluorescence measurements were reproducible for measurements on different days.

A further data set concerns RNA AT. As to the kind of experiment: In vitro fluorescence turn-on, plate reader, aptamer AT. It counts as biochemical. The note with it: probe 0.25 or 0.5 μM, RNA at least 5 μM. As to the method:
as §2

The subject of data set [5] is SM-KDM5B translation reporter tagged with 12 copies of Riboglow. Description: Translation assay, live U2-OS cells. It counts as cell-based. As to the method:
U2-OS cells seeded on home-made imaging dishes as described above were bead loaded with a mix of 1 μg plasmid DNA encoding for the SM-KDM5B translation reporter, 3 μL of a 5 μM stock of the Cbl-fluorophore probe Cbl-4xGly-ATTO 590 and 1 μL of Alexa488-labeled Fab to bind N-terminal FLAG tags in the reporter. After 6-8 hours, cells were washed 3 times with PBS, and medium was replaced with FluoroBrite medium (Gibco). Imaging was performed under HILO conditions [reference 49] at 37° C. and 5% CO2 using an Andor Ixon Ultra DU897U-C50 EMCCD camera. When indicated, puromycin was added during the image acquisition at a final concentration of 50 μg/mL.

Structures are written as SMILES.

For orientation: Kd means the constant that tells how readily two partners part at equilibrium. Lower therefore signals a tighter complex. With `C/C1=C2/N[C@H]([C@H](CC(N)=O)[C@@]2(C)CCC(=O)NC[C@@H](C)OP(=O)(O)O[C@H]2[C@@H](O)[C@@H](n3cnc4cc(C)c(C)cc43)O[C@@H]2CO)[C@]2(C)N=C(/C(C)=C3N=C(/C=C4N=C1[C@@H](CCC(N)=O)C\4(C)C)[C@@H](CCC(N)=O)[C@]\3(C)CC(N)=O)[C@@H](CCC(N)=O)[C@]2(C)CC(N)=O.[Co]` [Cbl, cobalamin], the Kd is 37 ± 1 nM in data set [1], 290 nM in data set [2] and 2.2 ± 1.6 nM in data set [3].
Consider `CC1=N/C(=C\c2cc(F)c(O)c(F)c2)C(=O)N1CC(F)(F)F` [DFHBI-1T], for which, in the data set on ACTB-(2xdBroccoli) mRNA, the “cells with Halo-G3BP1 labeled SGs where no corresponding SGs in the green Broccoli channel were detectable” value stood at 90%, the “total SGs detected in the green Broccoli channel” value is 4% and the “transfected cells in which at least one SG was detected in the green channel” value was determined as 10%. Further, the “fluorescence remaining after photobleaching” value in the data set with Broccoli is < 20%.
For the compound `C/C1=C2/[N-][C@H]([C@H](CC(N)=O)[C@@]2(C)CCC(=O)NC[C@@H](C)OP(=O)([O-])O[C@H]2[C@@H](O)[C@@H](n3cnc4cc(C)c(C)cc43)O[C@@H]2Cn2cc(CNC(=O)c3ccc4c(c3)C3(OC4=O)c4ccc(O)cc4Oc4cc(O)ccc43)nn2)[C@]2(C)N=C(/C(C)=C3N=C(/C=C4N=C1[C@@H](CCC(N)=O)C\4(C)C)[C@@H](CCC(N)=O)[C@]\3(C)CC(N)=O)[C@@H](CCC(N)=O)[C@]2(C)CC(N)=O.[C-]#N.[Co+3]` [Cbl-FAM], the Fold fluorescence turn-on in data set [4] was 0.5x; in the data set on RNA AT it was 2.5x.
Turning to `COc1ccc(C[C@H](N)C(=O)N[C@H]2[C@@H](O)[C@H](n3cnc4c(N(C)C)ncnc43)O[C@@H]2CO)cc1` [Puromycin], the “protein signal at translation sites” value in data set [5] (Puromycin added to cells with co-moving translation spots) was “rapid disappearance of the protein signal”. Further, the “mRNA spots colocalized with protein signal” value in data set [5] (after Puromycin treatment, 50 μg/mL) was 30±12%.
